Assay [1] concerns MYC mRNA. As to the kind of experiment: cMyc RNA quantification assay (QuantiGene) in Raji cells. The assay is classed as cell-based. The conditions noted are these: Table 7, Raji (Burkitt's lymphoma) cells, 4 h. In outline:
(§1)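 MV4:11 or Raji cells were treated with a range of compound concentrations for 4 h. MYC mRNA was measured by QuantiGene 2.0, and biological duplicates were averaged and normalized to DMSO vehicle to give percent MYC mRNA.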

The test system of another assay is Myc RNA. As to the kind of experiment: Myc RNA quantification in xenograft model. The assay is classed as in vivo, NOD SCID mice. The conditions noted are these: for ED50: Mus musculus, Raji, po. On the procedure: Female NOD SCID mice (Harlan) were inoculated s.c. with 3×10^6 Raji cells per mouse resuspended in 10% Matrigel. Tumors were grown until they reached a size of 200 mm^3 to 400 mm^3 as measured by caliper. Mice were treated orally (5 mL/kg) with different doses of compounds prepared as a 2 mg/mL suspension of Carboxy-methyl-cellulose. At the indicated time points after treatment, tumors were harvested. RNA was isolated by using TRIzol extraction and processed for QuantiGene® Assay.

In assay [2] the test system is LPS-induced IL-6 production. Put plainly: In-vivo inhibition of LPS-induced IL-6 production. The conditions noted are these: for ED50: Mus musculus. Also noted: species or system Balb/C mice. On the procedure: Female Balb/C mice, 6 weeks old upon arrival at animal facility, and weighing 18-20 g/mouse were used for this assay. The mice are acclimated in animal facility for 5-7 days prior experiment initiation. Mice were randomly divided into experimental groups to include several doses of test article, and vehicle and dexamethasone controls. Mice were fasted from 12 hours prior to study initiation (dosing), but allowed free access to water. Mice were dosed following study group design by oral gavage 30 min prior to LPS stimulation. Dosing interval time was 1 min/mouse.
Two hours after LPS challenge animals were anesthetized by CO2 inhalation, and blood was sampled via cardiac puncture into EDTA coated tubes and placed on ice. Plasma was separated by centrifugation at 3000 g at 4° C. for 15 min. The separated plasma was divided into aliquots (50 ul/aliquot) and stored at −80° C. until plasma IL-6 ELISA and drug levels were analyzed.

For a further assay, the target named is T1, BRD4(BD1) (Homo sapiens, UniProt O60885).
T1 construct: His; made in house
As to the kind of experiment: BRD4 AlphaLisa binding assay (Alphascreen). The conditions noted are these: Table 6; BRD4(BD1) 30 nM, H4-tetraacetyl peptide 200 nM; read-out: BRD4 Alphascreen IC50. The method in brief: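 BRD4(BD1) (30 nM) incubated 20 min at room temperature with peptide (200 nM) and compound in 40 mM HEPES pH 7.0, 40 mM NaCl, 1 mM DTT, 0.01% BSA, 0.008% Brij-35, 1.2% DMSO.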

The subject of a further assay is IL-6 secretion. As to the kind of experiment: Cell-based IL-6 quantification assay (ELISA, Mesoscale) in LPS-stimulated THP-1 cells. The settings on record: Table 7, THP-1 cells, LPS 4 μg/mL, 16 h, normalised to CellTiter-Glo, read-out: IL6. In outline:
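THP-1 cells stimulated with LPS at 4 μg/mL final and exposed to compounds for 16 h. Supernatant IL-6 measured by Mesoscale ELISA and normalized to CellTiter-Glo cell content. Percent inhibition derived from that ratio.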
For orientation: ELISA stands for enzyme-linked immunosorbent assay.

For assay [3], the system named is MYC mRNA. As to the kind of experiment: cMyc RNA quantification assay (QuantiGene) in MV4:11 cells. The assay is classed as cell-based. The conditions noted are these: read-out: MYC-MV411. The method in brief: as §1
[4] abbreviates: Homo sapiens, MV4-11, 4 h, Table 7, MV4:11 (AML) cells.

Like-named read-outs stand apart in the source and are kept apart here. Bounds are passed on as bounds.

One may read the ED50 as the dose at which the effect has come halfway, by size or by number of responders. The low end stands for greater potency, the high end for weaker potency. In the case of `Cc1cccc2c1C(c1ccc(F)cc1)=NC(CC(N)=O)c1onc(C)c1-2` (centres unmarked) [Compound 129], the IC50 with MYC mRNA [1] (Homo sapiens) is < 500 nM; at BRD4(BD1), < 500 nM; with IL-6 secretion (Homo sapiens, THP-1, 16 h), < 500 nM. The ED50 with Myc RNA is 20 to 50 mg/kg; in assay [2], < 10 mg/kg.

Take `Cc1noc2c1-c1sc(C)c(C)c1C(c1ccc(C#N)cc1)=NC2CC(=O)NCCF` (centres unmarked) [Compound 114]: the IC50 in the assay on MYC mRNA [1] (Homo sapiens) is < 500 nM; on BRD4(BD1), < 500 nM; with IL-6 secretion (Homo sapiens, THP-1, 16 h), < 500 nM. In the assay with Myc RNA, this compound yielded a median effective dose (ED50) of 20 to 50 mg/kg.

As for `Cc1cccc2c1C(c1ccc(C(F)(F)F)cc1)=NC(CC(N)=O)c1onc(C)c1-2` (centres unmarked) [Compound 132], the IC50 is < 500 nM in the assay on MYC mRNA [3] (setting [4]); < 500 nM with MYC mRNA [1] (Homo sapiens); < 500 nM on BRD4(BD1); < 500 nM with IL-6 secretion (Homo sapiens, THP-1, 16 h). The results for the ED50 (with Myc RNA; in assay [2]) were < 20 mg/kg and < 10 mg/kg, respectively.

In the case of `Cc1noc2c1-c1ccccc1C(c1ccc(Cl)cc1)=N[C@H]2CC(N)=O` [Compound 144], the IC50 with MYC mRNA [3] (Table 7, MV4:11 (AML) cells, 4 h) was < 500 nM; in the assay on MYC mRNA [1], < 500 nM; in the assay on IL-6 secretion it was < 500 nM. The “ED50 (mg/kg)” value with Myc RNA (Table 16, Raji xenograft tumors, oral treatment, Myc RNA by QuantiGene, 50% inhibition compared to vehicle) is “++ (“++” indicates an ED50 of less than 20 mg/kg)”; in assay [2] (Table 15, oral gavage 30 min prior to LPS, plasma IL-6 ELISA two hours after LPS challenge, 50% inhibition compared to vehicle) it was “++ (“++” indicates an ED50 of less than 10 mg/kg)”.

`Cc1noc2c1-c1sc(C)c(C)c1C(c1ccc(Cl)cc1)=N[C@H]2CC(N)=O` [Compound 110, 2-((6S)-4-(4-chlorophenyl)-2,3,9-trimethyl-6H-isoxazolo[5,4-c]thieno[2,3-e]azepin-6-yl)acetamide]: the IC50 in the assay with MYC mRNA [3] (setting [4]) was < 500 nM; with MYC mRNA [1] (Homo sapiens), < 500 nM; on BRD4(BD1) it was < 500 nM; in the assay on IL-6 secretion (Homo sapiens, THP-1, 16 h), < 500 nM. The ED50 with Myc RNA is 20 to 50 mg/kg; in assay [2], < 10 mg/kg.

(Values after patent US9522920B2, “Bromodomain inhibitors and uses thereof” (Constellation Pharmaceuticals, Inc., priority 2010, dated 2016).)
